{"source": "PubChem BioAssay AID2128", "about": "(The Scripps Research Institute Molecular Screening Center, 2009)", "biological_target": "Beta-lactamase (Pseudomonas aeruginosa) (UniProt Q932Y6)", "test": "VIM-2 metallo-beta-lactamase inhibition constant, late-stage follow-up, mechanism study, biochemical, probe results (AID 2128)", "settings": "purified enzyme, nitrocefin hydrolysis absorbance/fluorescence, enzyme assay, VIM-2 inhibition constant, kinetics"}
{"smiles": "O=c1[nH]c2c(s1)C(c1cccnc1)C1C3CCC(C3)C1S2", "note": "(stereo unspecified)", "values": [{"measurement": "Ki", "value": 148, "unit": "nM"}]}
